Data taken from patent US20250339399A1, “SUPRAMOLECULAR SELF-ASSEMBLY SYSTEM” (Beijing Creatron Institute of Pharmaceutical Research Co., …, priority 2022, published 2025).
Read-outs that look alike come from different tables or passages of the source. Blank lines part the entries; values can stand above or below the compound they belong to.

Experiments:
[1] = cited from earlier work; for solubility value given in Table 1 (basic information of natural flavonoids): parent flavonoid of the class; for LogP / Sol: natural flavonoids (chalcone, dihydrochalcone class), Table 1 basic information
[2] = Binary supramolecular self-assembly systems of polymer and target: guest concentration over incubation time (Comparative Example 2); format: physicochemical; conditions: for Concentration of guest molecule in solution / Times that of the initial medium: 6 h
Procedure: Experiments were conducted according to the steps in Comparative Example 1, and quantitative analysis was carried out using the analytical method for each target to investigate the regulation ability […] stacking.

[3] = cited from earlier work
[4] = Guest molecule concentration after incubation in initial medium without polymer (Comparative Example 1); format: physicochemical; conditions: 37° C.
Summary of the method: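 Dissolved guest content measured by HPLC of centrifuged supernatants (37° C., 13000 rpm, 5 min) sampled at 0.5 h, 3 h and 6 h. Incubation was polymer-free at 37° C.±0.5° C. in buffers of pH 2.0-7.4; nominal loading was set by maximum clinical dose.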

[5] = Binary (carrier), ternary and quaternary supramolecular self-assembly systems of polymer, carrier building block and target: guest concentration over incubation time (Examples 1-56); format: physicochemical; conditions: 6 h
Summary of the method: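 Targets were incubated at 37 °C in pH 2.0–7.4 buffers with 0.5% polymer alone or with carrier building blocks, after 0.5 h sonication for ternary systems, and shaken at 200 rpm. Samples at 0.5–6 h were centrifuged and diluted ≥10-fold, and dissolved target was quantified by HPLC; surfactant was added if needed.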

[6] = binary system with 0.5% polymer 101, incubation 0.5 h
[7] = binary system with 0.5% polymer 101, incubation 3 h
[8] = binary system with 0.5% polymer 101, incubation 6 h
[9] = binary system with 0.5% polymer 102, incubation 0.5 h
[10] = binary system with 0.5% polymer 102, incubation 3 h
[11] = binary system with 0.5% polymer 102, incubation 6 h
[12] = binary system with 0.5% polymer 103, incubation 0.5 h
[13] = binary system with 0.5% polymer 103, incubation 3 h
[14] = binary system with 0.5% polymer 103, incubation 6 h
[15] = binary system with 0.5% polymer 106, incubation 0.5 h
[16] = binary system with 0.5% polymer 106, incubation 3 h
[17] = binary system with 0.5% polymer 106, incubation 6 h
[18] = binary system with 0.5% polymer 107, incubation 0.5 h
[19] = binary system with 0.5% polymer 107, incubation 3 h
[20] = binary system with 0.5% polymer 107, incubation 6 h
[21] = quaternary: 0.25% 205 (102H+104) + 0.25% 313
[22] = quaternary: 0.25% 205 (102H+104) + 0.25% 318
[23] = quaternary: 204 (103E5+102H) + 301, % not stated
[24] = ternary: 0.25% 102H + 0.25% 313
[25] = ternary: 102H (0.25% where stated) + 301, carrier % not stated

SMILES: C=C1C[C@@]23CC[C@H]4[C@@](C)(CCC[C@@]4(C)C(=O)O[C@@H]4O[C@H](CO)[C@@H](O)[C@H](O)[C@H]4O)[C@@H]2CC[C@]1(O[C@@H]1O[C@H](CO)[C@@H](O)[C@H](O[C@@H]2O[C@H](CO)[C@@H](O)[C@H](O)[C@H]2O)[C@H]1O[C@@H]1O[C@H](CO)[C@@H](O)[C@H](O)[C@H]1O)C3 [Rebaudioside A]
Intrinsic solubility [1]: Intrinsic solubility: 288.8 mg/ml

SMILES: CC1(C)[C@@H](O[C@H]2O[C@H](C(=O)O)[C@@H](O)[C@H](O)[C@H]2O[C@@H]2O[C@H](C(=O)O)[C@@H](O)[C@H](O)[C@H]2O)CC[C@]2(C)[C@H]3C(=O)C=C4[C@@H]5C[C@@](C)(C(=O)O)CC[C@]5(C)CC[C@@]4(C)[C@]3(C)CC[C@@H]12 [Glycyrrhizic acid, glycyrrhizic acid]
Solubility ([1]; pH > 5.0): pH > 5.0: 159 mg/ml

SMILES: O=c1c(O)c(-c2cc(O)c(O)c(O)c2)oc2cc(O)cc(O)c12 [Myricetin]
solubility value given in Table 1 (basic information of natural flavonoids) ([1]; value follows the class name): Myricetin (529-44-2) derivatives −3.14 mg/ml

SMILES: O=C(CCc1ccc(O)c(O)c1)c1c(O)cc(O[C@@H]2O[C@H](CO)[C@@H](O)[C@H](O)[C@H]2O)cc1O [Sieboldin, 1-(2,6-dihydroxy-4-{[3,4,5-trihydroxy-6-(hydroxymethyl)oxo-2-yl]oxy}phenyl)-3-(3,4-dihydroxyphenyl)propan-1-one]
LogP [1]: 1.32 | Sol [1]: 11.65 mg/mL

SMILES: C[C@@H]1O[C@@H](O[C@H]2[C@H](Oc3cc(O)c(C(=O)CCc4ccc(O)c(O)c4)c(O)c3)O[C@H](CO)[C@@H](O)[C@@H]2O)[C@H](O)[C@H](O)[C@H]1O [Neoeriocitrin dihydrochalcone, 1-[4-[(2S,3R,4S,5S,6R)-4,5-dihydroxy-6-(hydroxymethyl)-3-[(2S,3R,4R,5R,6S)-3,4,5-trihydroxy-6-methoxy-2-yl]oxy-2-yl]oxy-2,6-dihydroxyphenyl]-3-(3,4-dihydroxyphenyl)propan-1-one]
Sol [1]: 21.89 mg/mL

SMILES: C=C1C[C@@]23CC[C@H]4[C@@](C)(CCC[C@@]4(C)C(=O)O[C@@H]4O[C@H](CO)[C@@H](O)[C@H](O)[C@H]4O)[C@@H]2CC[C@]1(O[C@@H]1O[C@H](CO)[C@@H](O)[C@H](O[C@@H]2O[C@H](CO)[C@@H](O)[C@H](O)[C@H]2O)[C@H]1O[C@@H]1O[C@@H](C)[C@H](O)[C@@H](O)[C@H]1O)C3 [Rebaudioside C, rebaudioside C]
Intrinsic solubility [1]: Intrinsic solubility: 72.63 mg/ml

SMILES: O=C(CCc1ccc(O)c(O)c1)c1c(O)cc(O)cc1O[C@@H]1O[C@H](CO)[C@@H](O)[C@H](O)[C@H]1O [3-hydroxyphloretin 2′-glucoside]
LogP [1]: 0.67 | Sol [1]: 11.65 mg/mL

SMILES: O=c1c(O)c(-c2ccc(O)cc2)oc2cc(O)cc(O)c12 [Kaempferol, kaempferol]
solubility value given in Table 1 (basic information of natural flavonoids) ([1]; no unit printed in the heading): Kaempferol (520-18-3) derivatives-0.40

Concentration of the target in the solution measured after different incubation time [2, 6]: 163.1 µg/mL | Concentration of the target in the solution measured after different incubation time [2, 7]: 89.0 µg/mL | Concentration of the target in the solution measured after different incubation time [2, 8]: 85.5 µg/mL | Concentration of the target in the solution measured after different incubation time [2, 9]: 205.7 µg/mL | Concentration of the target in the solution measured after different incubation time [2, 10]: 167.0 µg/mL | Concentration of the target in the solution measured after different incubation time [2, 11]: 154.0 µg/mL | Concentration of the target in the solution measured after different incubation time [2, 12]: 259.9 µg/mL | Concentration of the target in the solution measured after different incubation time [2, 13]: 126.5 µg/mL | Concentration of the target in the solution measured after different incubation time [2, 14]: 109.6 µg/mL | Concentration of the target in the solution measured after different incubation time ([2]; binary system with 0.5% polymer 104, incubation 0.5 h): 105.4 µg/mL | Concentration of the target in the solution measured after different incubation time ([2]; binary system with 0.5% polymer 104, incubation 3 h): 156.4 µg/mL | Concentration of the target in the solution measured after different incubation time ([2]; binary system with 0.5% polymer 104, incubation 6 h): 144.8 µg/mL | Concentration of the target in the solution measured after different incubation time [2, 15]: 131.3 µg/mL | Concentration of the target in the solution measured after different incubation time [2, 16]: 60.3 µg/mL | Concentration of the target in the solution measured after different incubation time [2, 17]: 58.2 µg/mL | Concentration of the target in the solution measured after different incubation time [2, 18]: 103.5 µg/mL | Concentration of the target in the solution measured after different incubation time [2, 19]: 32.0 µg/mL | Concentration of the target in the solution measured after different incubation time [2, 20]: 27.0 µg/mL | Concentration of guest molecule in solution ([2]; binary: 0.5% 102H): 154.0 µg/mL | Times that of the initial medium ([2]; binary: 0.5% 102H): 4.9 times | Concentration of guest molecule in solution ([2]; binary: 0.5% 103E5): 105.4 µg/mL | Times that of the initial medium ([2]; binary: 0.5% 103E5): 3.3 times | Concentration of guest molecule in solution ([2]; binary: 0.5% 104): 144.8 µg/mL | Times that of the initial medium ([2]; binary: 0.5% 104): 4.6 times | Concentration of guest molecule measured after different incubated time ([4]; 0.5 h, pH 6.8 phosphate buffer): 140.4 µg/mL | Concentration of guest molecule measured after different incubated time ([4]; 3 h, pH 6.8 phosphate buffer): 34.8 µg/mL | Concentration of guest molecule measured after different incubated time ([4]; 6 h, pH 6.8 phosphate buffer): 31.6 µg/mL | Increase of the concentration of the guest molecule ([5]; 0.25% 102H, 1.0% 313 compared to the 0.25% 313 system): 16.4% | Concentration of guest molecule in solution ([5]; binary: 0.25% 301): 77.0 µg/mL | Concentration of guest molecule in solution ([5]; binary: 0.25% 302): 34.2 µg/mL | Concentration of guest molecule in solution ([5]; binary: 0.25% 310): 279.8 µg/mL | Concentration of guest molecule in solution ([5]; binary: 0.25% 313): 70.0 µg/mL | Concentration of guest molecule in solution ([5]; binary: 0.25% 318): 60.5 µg/mL | Concentration of guest molecule in solution [5, 21]: 250.7 µg/mL | Times that of the initial medium [5, 21]: 7.9 times | Concentration of guest molecule in solution [5, 22]: 257.8 µg/mL | Times that of the initial medium [5, 22]: 8.2 times | Concentration of guest molecule in solution [5, 23]: 250.4 µg/mL | Times that of the initial medium [5, 23]: 7.9 times | Concentration of guest molecule in solution ([5]; ternary: 0.25% 102H + 0.1% 313): 191.5 µg/mL | Times that of the initial medium ([5]; ternary: 0.25% 102H + 0.1% 313): 6.1 times | Concentration of guest molecule in solution ([5]; ternary: 0.25% 102H + 0.25% 302): 195.5 µg/mL | Concentration of guest molecule in solution ([5]; ternary: 0.25% 102H + 0.25% 310): 44.8 µg/mL | Concentration of guest molecule in solution [5, 24]: 361.6 µg/mL | Times that of the initial medium [5, 24]: 11.4 times | Concentration of guest molecule in solution ([5]; ternary: 0.25% 102H + 0.25% 318): 181.8 µg/mL | Concentration of guest molecule in solution ([5]; ternary: 0.25% 102H + 1.0% 313): 420.8 µg/mL | Times that of the initial medium ([5]; ternary: 0.25% 102H + 1.0% 313): 13.3 times | Concentration of guest molecule in solution ([5]; ternary: 0.25% 103E5 + 0.25% 302): 102.3 µg/mL | Concentration of guest molecule in solution ([5]; ternary: 0.25% 104 + 0.25% 302): 138.3 µg/mL | Concentration of guest molecule in solution [5, 25]: 126.9 µg/mL | Times that of the initial medium [5, 25]: 4.0 times
SMILES: CC(=O)c1c(C)c2cnc(Nc3ccc(N4CCNCC4)cn3)nc2n(C2CCCC2)c1=O [Palbociclib]
LogD7.4 or Log P [3]: 1.31

Concentration of the target in the solution measured after different incubation time [2, 6]: 224.0 µg/mL | Concentration of the target in the solution measured after different incubation time [2, 7]: 88.8 µg/mL | Concentration of the target in the solution measured after different incubation time [2, 8]: 161.3 µg/mL | Concentration of the target in the solution measured after different incubation time [2, 9]: 63.4 µg/mL | Concentration of the target in the solution measured after different incubation time [2, 10]: 60.3 µg/mL | Concentration of the target in the solution measured after different incubation time [2, 11]: 55.7 µg/mL | Concentration of the target in the solution measured after different incubation time [2, 12]: 46.8 µg/mL | Concentration of the target in the solution measured after different incubation time [2, 13]: 58.7 µg/mL | Concentration of the target in the solution measured after different incubation time [2, 14]: 6.0 µg/mL | Concentration of the target in the solution measured after different incubation time [2, 15]: 78.6 µg/mL | Concentration of the target in the solution measured after different incubation time [2, 16]: 65.2 µg/mL | Concentration of the target in the solution measured after different incubation time [2, 17]: 5.2 µg/mL | Concentration of the target in the solution measured after different incubation time [2, 18]: 68.7 µg/mL | Concentration of the target in the solution measured after different incubation time [2, 19]: 62.8 µg/mL | Concentration of the target in the solution measured after different incubation time [2, 20]: 13.2 µg/mL | Concentration of guest molecule measured after different incubated time ([4]; 0.5 h, pH 4.5 acetate buffer): 77.4 µg/mL | Concentration of guest molecule measured after different incubated time ([4]; 3 h, pH 4.5 acetate buffer): 8.2 µg/mL | Concentration of guest molecule measured after different incubated time ([4]; 6 h, pH 4.5 acetate buffer): 17.3 µg/mL | Concentration of guest molecule in solution ([5]; ternary: 0.25% 102H + 307): 161.3 µg/mL | Concentration of guest molecule in solution ([5]; ternary: 0.25% 102H + 308): 219.1 µg/mL | Concentration of guest molecule in solution ([5]; ternary: 0.25% 102H + 320): 328.9 µg/mL | Concentration of guest molecule in solution ([5]; ternary: 0.25% 102H + 321): 337.2 µg/mL
SMILES: C=CC[C@@H]1/C=C(\C)C[C@H](C)C[C@H](OC)[C@H]2O[C@@](O)(C(=O)C(=O)N3CCCC[C@H]3C(=O)O[C@H](/C(C)=C/[C@@H]3CC[C@@H](O)[C@H](OC)C3)[C@H](C)[C@@H](O)CC1=O)[C@H](C)C[C@@H]2OC [Tacrolimus]
LogP [3]: LogP 5.59
